Target: T1, human P2X4 (Homo sapiens, UniProt Q99571)
T1 sequence (Q99571 1-388): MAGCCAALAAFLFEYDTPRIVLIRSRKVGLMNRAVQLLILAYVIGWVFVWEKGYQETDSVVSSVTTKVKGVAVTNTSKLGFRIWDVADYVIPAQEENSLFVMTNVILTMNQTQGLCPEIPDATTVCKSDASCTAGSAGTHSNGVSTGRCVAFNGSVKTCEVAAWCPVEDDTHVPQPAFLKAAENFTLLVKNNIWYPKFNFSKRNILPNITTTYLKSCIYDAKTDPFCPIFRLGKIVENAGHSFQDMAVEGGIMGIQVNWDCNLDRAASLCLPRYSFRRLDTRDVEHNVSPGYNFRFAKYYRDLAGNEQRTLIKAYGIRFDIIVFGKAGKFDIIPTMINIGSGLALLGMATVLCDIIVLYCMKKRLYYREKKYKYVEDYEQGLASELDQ
Experiment: Human P2X4 HEK Cell FLIPR Assay
Type: cell-based
Details: agonist Bz-ATP at EC80; for Emax: HEK293, HEK293 cells, percentage of maximal inhibition, read-out: Human P2X4 HEK Cells (FLIPR Assay) avg Efficacy [%]; for IC50: HEK293 cells, individual values listed where some fall outside detection range
Summary of the method: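 HEK293 cells stably expressing human P2X4, Fluo8-AM loaded 30 min at 37° C, then compound 30 min at room temperature (0.5% DMSO, pH 7.4 buffer with 1.8 mM CaCl2). Bz-ATP at its daily-determined EC80 added; calcium fluorescence read over 120 sec; IC50 from peak RFU normalized to agonist control, triplicates.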

Row | SMILES | Emax | IC50
1 | NS(=O)(=O)c1cc(NC(=O)Cc2ccccc2F)ccc1-n1cc(C(F)(F)F)cn1 [Example 20, 2-(2-Fluorophenyl)-N-{3-sulfamoyl-4-[4-(trifluoromethyl)-1H-pyrazol-1-yl]phenyl}-acetamide] | 67% | –
2 | NS(=O)(=O)c1cc(NC(=O)Cc2ccccc2Cl)ccc1-n1ccc(C(F)(F)F)n1 [Example 11, 2-(2-Chlorophenyl)-N-{3-sulfamoyl-4-[3-(trifluoromethyl)-1H-pyrazol-1-yl]phenyl}-acetamide] | 31% | > 25000 nM
3 | NS(=O)(=O)c1cc(NC(=O)Cc2c(F)cccc2Cl)ccc1-n1cc(Cl)cn1 [Example 77, 2-(2-Chloro-6-fluorophenyl)-N-[4-(4-chloro-1H-pyrazol-1-yl)-3-sulfamoylphenyl]-acetamide] | 82% | 71 nM
4 | COCc1ncn(-c2ccc(NC(=O)Cc3ccccc3Cl)cc2S(N)(=O)=O)n1 [Example 38, 2-(2-Chlorophenyl)-N-{4-[3-(methoxymethyl)-1H-1,2,4-triazol-1-yl]-3-sulfamoyl-phenyl}acetamide] | 87% | 329 nM
5 | NS(=O)(=O)c1cc(NC(=O)Cc2ccc(F)cc2)ccc1-n1cc(C(F)(F)F)cn1 [Example 119, 2-(4-Fluorophenyl)-N-{3-sulfamoyl-4-[4-(trifluoromethyl)-1H-pyrazol-1-yl]phenyl}-acetamide] | 55% | 270 nM
6 | NS(=O)(=O)c1cc(NC(=O)Cc2ccccc2Cl)ccc1-n1cc(C(F)(F)F)nn1 [Example 242, 2-(2-Chlorophenyl)-N-{3-sulfamoyl-4-[4-(trifluoromethyl)-1H-1,2,3-triazol-1-yl]-phenyl}acetamide] | 86% | 37 nM
7 | N#Cc1cc(NC(=O)Cc2ccccc2Cl)cc(S(N)(=O)=O)c1-n1cc(F)cn1 [Example 247, 2-(2-Chlorophenyl)-N-[3-cyano-4-(4-fluoro-1H-pyrazol-1-yl)-5-sulfamoyl-phenyl]acetamide] | 64% | 69 nM
8 | NS(=O)(=O)c1cc(NC(=O)Cc2ccc(F)c(F)c2)ccc1-n1cc(F)cn1 [Example 145, 2-(3,4-Difluorophenyl)-N-[4-(4-fluoro-1H-pyrazol-1-yl)-3-sulfamoylphenyl]acetamide] | 49% | > 25000 nM
9 | NS(=O)(=O)c1cc(NC(=O)Cc2c(Cl)cccc2C(F)(F)F)ccc1-n1cc(F)cn1 [Example 169, 2-[2-Chloro-6-(trifluoromethyl)phenyl]-N-[4-(4-fluoro-1H-pyrazol-1-yl)-3-sulfamoyl-phenyl]acetamide] | 86% | 85 nM
10 | NS(=O)(=O)c1cc(NC(=O)Cc2ccccc2Cl)ccc1-n1cc2cccnc2n1 [Example 253, 2-(2-Chlorophenyl)-N-[4-(2H-pyrazolo[3,4-b]pyridin-2-yl)-3-sulfamoylphenyl]-acetamide] | 85% | 257 nM
11 | NS(=O)(=O)c1cc(NC(=O)C(F)(F)c2ccccc2Cl)ccc1-n1cc(Br)cn1 [Example 62, N-[4-(4-Bromo-1H-pyrazol-1-yl)-3-sulfamoylphenyl]-2-(2-chlorophenyl)-2,2-difluoroacetamide] | 94% | 249 nM
12 | N#Cc1ncn(-c2ccc(NC(=O)Cc3ccccc3Cl)cc2S(N)(=O)=O)n1 [Example 41, 2-(2-Chlorophenyl)-N-[4-(3-cyano-1H-1,2,4-triazol-1-yl)-3-sulfamoylphenyl]acetamide] | 70% | 357 nM
13 | Cc1cccc(CC(=O)Nc2ccc(-n3cc(C(F)(F)F)cn3)c(S(N)(=O)=O)c2)c1 [Example 124, 2-(3-Methylphenyl)-N-{3-sulfamoyl-4-[4-(trifluoromethyl)-1H-pyrazol-1-yl]phenyl}-acetamide] | 62% | 166 nM
14 | CC(C)(C)n1cc(-c2ccc(NC(=O)Cc3ccccc3F)cc2S(N)(=O)=O)cn1 [Example 346, N-[4-(1-tert-Butyl-1H-pyrazol-4-yl)-3-sulfamoylphenyl]-2-(2-fluorophenyl)acetamide] | 105% | 46 nM
15 | N#Cc1cnn(-c2ccc(NC(=O)Cc3c(F)cc(F)cc3Cl)cc2S(N)(=O)=O)c1 [Example 217, 2-(2-Chloro-4,6-difluorophenyl)-N-[4-(4-cyano-1H-pyrazol-1-yl)-3-sulfamoyl-phenyl]acetamide] | 84% | 51 nM
16 | CC(=O)c1cnn(-c2ccc(NC(=O)Cc3ccccc3Cl)cc2S(N)(=O)=O)c1 [Example 232, N-[4-(4-Acetyl-1H-pyrazol-1-yl)-3-sulfamoylphenyl]-2-(2-chlorophenyl)acetamide] | 89% | 81 nM
17 | NS(=O)(=O)c1cc(NC(=O)Cc2ccncc2Cl)ccc1-n1cc(Br)cn1 [Example 72, N-[4-(4-Bromo-1H-pyrazol-1-yl)-3-sulfamoylphenyl]-2-(3-chloropyridin-4-yl)acetamide] | 96% | 576 nM
18 | Cc1cn(-c2ccc(NC(=O)Cc3ccccc3Cl)cc2S(N)(=O)=O)c(C)n1 [Example 47, 2-(2-Chlorophenyl)-N-[4-(2,4-dimethyl-1H-imidazol-1-yl)-3-sulfamoylphenyl]-acetamide] | 66% | 472 nM

Other lines, results leading:

Row | Emax | IC50 | SMILES
19 | 94% | 65 nM | N#Cc1cnn(-c2ccc(NC(=O)Cc3cc(O)ccc3Cl)cc2S(N)(=O)=O)c1 [Example 556, 2-(2-Chloro-5-hydroxyphenyl)-N-[4-(4-cyano-1H-pyrazol-1-yl)-3-sulfamoylphenyl]acetamide]
20 | 51% | 331 nM | Cc1ccc(CC(=O)Nc2ccc(-c3nnc(C)o3)c(S(N)(=O)=O)c2)cc1 [Example 526, N-[4-(5-Methyl-1,3,4-oxadiazol-2-yl)-3-sulfamoylphenyl]-2-(4-methylphenyl)acetamide]
21 | 92% | 269 nM | Cc1ccc(CC(=O)Nc2ccc(-c3ccc(Cl)nc3)c(S(N)(=O)=O)c2)c(F)c1 [Example 471, N-[4-(6-Chloropyridin-3-yl)-3-sulfamoylphenyl]-2-(2-fluoro-4-methylphenyl)acetamide]
22 | 65% | 72 nM | NS(=O)(=O)c1cc(NC(=O)Cc2ccccc2Cl)ccc1-c1nccs1 [Example 427, 2-(2-Chlorophenyl)-N-[3-sulfamoyl-4-(1,3-thiazol-2-yl)phenyl]acetamide]
23 | 93% | 45 nM | N#Cc1cnn(-c2ncc(NC(=O)Cc3ccccc3Cl)cc2S(N)(=O)=O)c1 [Example 383, 2-(2-Chlorophenyl)-N-[6-(4-cyano-1H-pyrazol-1-yl)-5-sulfamoylpyridin-3-yl]acetamide]
24 | 94% | 5 nM | Cc1nn(-c2ccc(NC(=O)Cc3ccccc3Cl)cc2S(N)(=O)=O)cc1C#N [Example 548, 2-(2-Chlorophenyl)-N-[4-(4-cyano-3-methyl-1H-pyrazol-1-yl)-3-sulfamoylphenyl]acetamide]
25 | 77% | 588 nM | CC(C)(O)c1ncc(-c2ccc(NC(=O)Cc3ccccc3Cl)cc2S(N)(=O)=O)s1 [Example 435, 2-(2-Chlorophenyl)-N-{4-[2-(2-hydroxypropan-2-yl)-1,3-thiazol-5-yl]-3-sulfamoylphenyl}acetamide]
26 | 102% | 47 nM | Cc1nc(C)c(-c2ccc(NC(=O)Cc3ccccc3Cl)cc2S(N)(=O)=O)s1 [Example 503, 2-(2-Chlorophenyl)-N-[4-(2,4-dimethyl-1,3-thiazol-5-yl)-3-sulfamoylphenyl]acetamide]
27 | 91% | 185 nM | NS(=O)(=O)c1cc(NC(=O)Cc2ccccc2Cl)ccc1-n1cc(C(=O)N2CCC2)cn1 [Example 441, N-{4-[4-(Azetidin-1-ylcarbonyl)-1H-pyrazol-1-yl]-3-sulfamoylphenyl}-2-(2-chlorophenyl)acetamide]
28 | 94% | 22 nM | N#Cc1cnn(-c2ccc(NC(=O)Cc3ccc(O)cc3Cl)cc2S(N)(=O)=O)c1 [Example 555, 2-(2-Chloro-4-hydroxyphenyl)-N-[4-(4-cyano-1H-pyrazol-1-yl)-3-sulfamoylphenyl]acetamide]
29 | 89% | 274 nM | NS(=O)(=O)c1cc(NC(=O)Cc2ccccc2Cl)ccc1-c1ccsn1 [Example 419, 2-(2-Chlorophenyl)-N-[3-sulfamoyl-4-(1,2-thiazol-3-yl)phenyl]acetamide]
30 | 89% | 58 nM | Cc1ccc(CC(=O)Nc2ccc(-c3cncc(F)c3)c(S(N)(=O)=O)c2)c(F)c1 [Example 476, 2-(2-Fluoro-4-methylphenyl)-N-[4-(5-fluoropyridin-3-yl)-3-sulfamoylphenyl]acetamide]
31 | 95% | 91 nM | NS(=O)(=O)c1cc(NC(=O)Cc2cccc(C(F)(F)F)c2Cl)ccc1-c1cnn(C(F)F)c1 [Example 490, 2-[2-Chloro-3-(trifluoromethyl)phenyl]-N-{4-[1-(difluoromethyl)-1H-pyrazol-4-yl]-3-sulfamoylphenyl}acetamide]
32 | 92% | 648 nM | NS(=O)(=O)c1cc(NC(=O)Cc2cccc(F)c2)ccc1-c1ccc(Cl)nc1 [Example 464, N-[4-(6-Chloropyridin-3-yl)-3-sulfamoylphenyl]-2-(3-fluorophenyl)acetamide]
